Assay results as given in patent US5089623A, “Certain imidate insecticides” (Imperial Chemical Industries Plc, priority 1990, dated 1992).

How the values were obtained:
Type in all cases: in vivo
[1] = test system: Aster Leafhopper [Macrosteles fascifrens (Stal)]; experiment: Aster leafhopper test (LH); details: adults/nymphs, 48 hours, percent in solution
[2] = test system: Cabbage Looper [Trichoplusia ni (Hubner)]; experiment: Cabbage looper test (CL); details: second-instar larvae, 3-5 days, percent in solution
[3] = test system: Housefly [Musca domestica]; experiment: Housefly insecticidal test (HF); details: per 25 female houseflies, 48 hours
[4] = test system: Tobacco Budworm [Heliothis virescens (Fabricius)] eggs; experiment: Tobacco budworm egg test (TBW-E); details: percent in solution
[5] = test system: Maize weevil [Sitophilus Zeamais (Motschulsky)]; experiment: Maize weevil test (MW); details: adult weevils, treated corn seeds, 48 hours, percent in solution
In short: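 Adult weevils (10) were placed with four corn seeds that had been dipped 2-3 s in compound dissolved in 50:50 acetone:water, then dried, and held at about 25° C. Mortality was scored at 48 h. LC50 was taken from dosage-mortality curves and expressed as percent compound in solution, from a 0.01% top concentration.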

Row | SMILES | LC50 LH [1] | LC50 CL [2] | LC50 HF [3] | LC50 TBW E [4] | LC50 MW [5]
1 | Cc1ccc(N=C(OCc2ccc(F)c(Oc3ccc(F)cc3)c2)C(C)C)cc1F [Compound 355] | < 0.05% | > 0.1% | < 100 µg | > 0.1% | > 0.01%
2 | Cc1ccc(N=C(OCc2ccc(F)c(Oc3ccccc3)c2)C(C)C)cc1Cl [Compound 356] | < 0.05% | > 0.1% | < 100 µg | 0.025% | > 0.01%
3 | Cc1ccc(N=C(OCc2ccc(F)c(Oc3ccc(F)cc3)c2)C(C)C)cc1Cl [Compound 357] | < 0.05% | > 0.1% | < 100 µg | > 0.1% | 0.01%
4 | Cc1cc(N=C(OCc2ccc(F)c(Oc3ccccc3)c2)C(C)C)ccc1Br [Compound 358] | < 0.05% | > 0.1% | < 100 µg | > 0.1% | > 0.01%
5 | Cc1cc(N=C(OCc2ccc(F)c(Oc3ccc(F)cc3)c2)C(C)C)ccc1Br [Compound 359] | 0.05% | > 0.1% | < 100 µg | 0.023% | > 0.01%
6 | CCc1ccc(N=C(OCc2ccc(F)c(Oc3ccccc3)c2)C(C)C)cc1 [Compound 360] | < 0.05% | 0.006% | < 100 µg | > 0.1% | > 0.01%
7 | CCc1ccc(N=C(OCc2ccc(F)c(Oc3ccc(F)cc3)c2)C(C)C)cc1 [Compound 361] | < 0.05% | 0.001% | < 100 µg | 0.04% | > 0.01%
8 | CSc1cccc(N=C(OCc2ccc(F)c(Oc3ccccc3)c2)C(C)C)c1 [Compound 362] | > 0.05% | > 0.1% | < 100 µg | > 0.1% | > 0.01%
9 | COc1ccc(N=C(OCc2ccc(F)c(Oc3ccc(F)cc3)c2)C(C)C)cc1OC [Compound 363] | > 0.05% | > 0.1% | < 100 µg | > 0.1% | > 0.01%
10 | CC(C)C(=Nc1ccc(Br)c(C(F)(F)F)c1)OCc1ccc(F)c(Oc2ccc(F)cc2)c1 [Compound 364] | < 0.05% | 0.00045% | < 100 µg | 0.025% | > 0.01%
11 | CC(C)C(=Nc1ccc(C(F)(F)F)cc1)OCc1cccc(Oc2ccc(Cl)cc2)c1 [Compound 365] | < 0.05% | 0.00025% | > 100 µg | 0.038% | > 0.01%
12 | CC(C)C(=Nc1ccc2c(c1)OCO2)OCc1ccc(F)c(Oc2ccc(Cl)cc2)c1 [Compound 366] | 0.05% | 0.0007% | < 100 µg | 0.012% | > 0.01%
13 | CC(C)C(=Nc1ccc2c(c1)OCO2)OCc1cccc(Oc2ccc(C(C)(C)C)cc2)c1 [Compound 367] | > 0.05% | < 0.1% | > 100 µg | > 0.1% | > 0.01%
14 | CC(C)C(=Nc1ccc(F)cc1)OCCc1cccc(Oc2ccccc2)c1 [Compound 456] | > 0.05% | 0.017% | > 100 µg | > 0.05% | > 0.01%
15 | CC(C)C(=Nc1ccc2c(c1)OCO2)OCc1cccc(Oc2ccc(Cl)cc2)n1 [Compound 466] | > 0.05% | 0.0008% | 13 µg | > 0.1% | 0.01%
16 | CC(C)C(=Nc1ccc(F)c(Cl)c1)OCc1ccc(OCc2ccccc2)cc1 [Compound 475] | > 0.05% | 0.008% | > 100 µg | > 0.1% | > 0.01%
17 | CC(C)C(=Nc1ccc(F)c(Cl)c1)OCc1cccc(OCc2ccc(F)cc2)c1 [Compound 490] | > 0.05% | 0.0045% | > 100 µg | > 0.1% | > 0.01%
18 | CC(C)C(=Nc1ccc(F)c(Cl)c1)OCc1cccc(Oc2ccc(Br)cc2)n1 [Compound 492] | > 0.05% | 0.00028% | 15 µg | 0.015% | > 0.01%
19 | CC(C)C(=Nc1ccc(F)c(Cl)c1)OCc1cccc(Nc2ccc(F)cc2)c1 [Compound 512] | > 0.05% | 0.003% | 35 µg | > 0.1% | > 0.01%

Row | SMILES | LC50 LH [1] | LC50 CL [2] | LC50 HF [3] | LC50 TBW E [4] | LC50 MW [5]
20 | CC(C)C(=Nc1cccc(C(F)(F)F)c1)OCc1cccc(Nc2ccc(F)cc2)c1 [Compound 513] | > 0.05% | 0.007% | 81 µg | > 0.1% | > 0.01%
21 | CC(C)C(=Nc1ccc(Cl)c(Cl)c1)OCc1cccc(Nc2ccc(F)cc2)c1 [Compound 514] | > 0.05% | 0.008% | > 100 µg | > 0.1% | > 0.01%
22 | CC(C)C(=Nc1ccc2c(c1)OCO2)OCc1cc(Oc2ccc(F)cc2)ccn1 [Compound 515] | > 0.05% | 0.0015% | 28 µg | > 0.1% | > 0.01%
23 | CC(C)C(=Nc1ccc(F)c(Cl)c1)OCc1cc(Oc2ccc(Cl)cc2)ccn1 [Compound 516] | > 0.05% | 0.008% | > 100 µg | > 0.1% | > 0.01%
24 | CC(C)C(=Nc1cccc(C(F)(F)F)c1)OCc1ccnc(Oc2ccc(Cl)cc2)c1 [Compound 517] | > 0.05% | 0.0008% | 80 µg | 0.04% | > 0.01%
25 | CC(C)C(=Nc1cccc(C(F)(F)F)c1)OCc1cccc(Oc2ccc(Cl)cn2)c1 [Compound 518] | > 0.05% | 0.00075% | > 100 µg | > 0.1% | > 0.01%
26 | C#CC(OC(=Nc1cccc(C(F)(F)F)c1)C(C)C)c1cccc(Oc2ccccc2)c1 (centres unmarked) [Compound 519] | > 0.05% | 0.0037% | 60 µg | > 0.1% | > 0.01%
27 | COCc1c(F)c(F)c(COC(=Nc2ccc(F)c(Cl)c2F)C(C)C)c(F)c1F [Compound 522] | 0.05% | > 0.1% | 17.5 µg | > 0.1% | > 0.01%
28 | CCC(=Nc1ccc(F)c(F)c1)OCc1coc(Cc2ccccc2)c1 [Compound 524] | > 0.05% | > 0.1% | 5.2 µg | > 0.1% | > 0.01%
29 | CC(C)(C)C(=Nc1ccc(F)c(F)c1)OCc1coc(Cc2ccccc2)c1 [Compound 525] | > 0.05% | < 0.1% | > 100 µg | > 0.1% | > 0.01%
30 | CC(=Nc1ccc(F)c(F)c1)OCc1coc(Cc2ccccc2)c1 [Compound 526] | > 0.05% | > 0.01% | 8.3 µg | > 0.1% | > 0.01%
31 | CC(C)C(=Nc1ccc(F)c(Cl)c1)OCc1cccc(Oc2ccc(Cl)cn2)c1 [Compound 527] | > 0.05% | 0.00065% | 47 µg | 0.035% | > 0.01%
32 | CC(C)C(=Nc1cccc(C(F)(F)F)c1)OCc1cc(Oc2ccc(F)cc2)ccn1 [Compound 528] | > 0.05% | 0.0075% | 59.1 µg | > 0.1% | > 0.01%
33 | CC(C)C(=Nc1ccc(F)c(Cl)c1)OCc1cc(Oc2ccc(F)cc2)ccn1 [Compound 529] | > 0.05% | > 0.0025% | 27.7 µg | > 0.1% | > 0.01%
34 | CC(C)C(=Nc1ccc2c(c1)OCO2)OCc1cccc(Oc2ccc(Cl)cn2)c1 [Compound 532] | > 0.05% | < 0.1% | > 100 µg | > 0.1% | > 0.01%
35 | C#CC(OC(=Nc1ccc(F)c(Cl)c1)C(C)C)c1cccc(Oc2ccccc2)c1 (centres unmarked) [Compound 533, N-(3-chloro-4-fluorophenyl)-O-[1-(3-phenoxyphenyl)-2-propyn-1-yl]isobutyrimidate] | > 0.05% | > 0.1% | 60 µg | > 0.1% | > 0.01%
36 | CC(C)C(=Nc1ccc(F)c(Cl)c1)OCC#CCOc1ccccc1 [Compound 534] | > 0.05% | < 0.1% | > 100 µg | > 0.1% | > 0.01%
37 | Cc1c(COC(=Nc2ccc(C(C)(C)C)cc2)C(C)C)cccc1-c1ccccc1 [Compound 536] | > 0.05% | < 0.1% | > 100 µg | > 0.1% | > 0.01%
